The text below walks through data of patent publication US11344510B2, “Arylcyclohexylamine derivatives and their use in the treatment of psychiatric disorders” (Gilgamesh Pharmaceuticals, Inc., priority 2019, dated 2022).

The structures appear in SMILES notation.

Data set [1] is described as follows: HLM stability (Low Activity, Alternative Method). It is filed as in vitro ADME. To be noted: both sexes, human, liver microsomes, pH 7.4, Condition 1 column, values marked *: Low Activity, 0.50 mg protein/mL. As for the experimental part: (§1) HLM Stability (Low Activity, Alternative Method). Pooled HLM from adult male and female donors (Corning 452117) were used. Microsomal incubations were carried out in multi-well plates. Liver microsomal incubation medium consisted of PBS (100 mM, pH 7.4), MgCl2 (1 mM), and NADPH (1 mM), with 0.50 mg of liver microsomal protein per mL. Control incubations were performed by replacing the NADPH-cofactor system with PBS. Test compounds (1 μM, final solvent concentration 1.0%) were incubated with microsomes at 37° C. with constant shaking. Six time points over 60 minutes were analyzed, with 60 μL aliquots of the reaction mixture being drawn at each time point. The reaction aliquots were stopped by adding 180 μL of cold (4° C.) acetonitrile containing 200 ng/mL tolbutamide and 200 ng/mL labetalol as internal standards (IS), followed by shaking for 10 minutes, and then protein sedimentation by centrifugation at 4000 rpm for 20 minutes at 4° C. Supernatant samples (80 μL) were diluted with water (240 μL) and analyzed for parent compound remaining using a fit-for-purpose liquid chromatography-tandem mass spectrometry (LC-MS/MS) method.
(§2) Data Analysis. The elimination constant (kel), half-life (t1/2) and intrinsic clearance (Clint) were determined in a plot of […] versus time, using linear regression analysis.
In general terms: Microsomes from liver hold many membrane-bound enzymes, among them those of drug oxidation.

Data set [2] can be described thus: MLM stability (Low Activity). To be noted: male, CD-1, mouse, liver microsomes, pH 7.4, Condition 1 (Low Activity), 0.50 mg protein/mL. It is filed as in vitro ADME, CD-1 mice. The protocol:
as §1, with “MLM” for “HLM”, “Activity).” for “Activity, Alternative Method).”, “from” for “from adult”, “CD-1 mice (XenoTech M1000)” for “and female donors (Corning 452117)”
as §2

Data set [3] in a line: RLM stability (Low Activity). The class given is in vitro ADME, Sprague Dawley rats. Conditions: male, Sprague Dawley, rat, liver microsomes, pH 7.4, Condition 1 (Low Activity), 0.50 mg protein/mL. As for the experimental part:
as §1, with “RLM” for “HLM”, “Activity).” for “Activity, Alternative Method).”, “from” for “from adult”, “Sprague Dawley rats (XenoTech R1000)” for “and female donors (Corning 452117)”
as §2

Data set [4] addresses MK-801 binding site of the N-methyl-D-aspartate receptor (NMDAR). Nature of the data set: NMDAR radioligand binding with [3H]MK-801, Method B. Also on record: species or system Sprague Dawley rat. Conditions: MK-801 site, Method B, male Sprague Dawley rat cortex, 5.0 nM [3H]MK-801; read-out: NMDAR Ki ± SEM. The protocol:
Radioligand Binding—Method B. Affinity of the test compounds for NMDAR was determined in radioligand binding experiments with [^3H]MK-801 by WuXi AppTec (Hong Kong) Limited, under the conditions described in Table 13.

Data set [5] has as its target T1, serotonin transporter (SERT) (Homo sapiens, UniProt P31645).
T1 construct: expressed in transfected cells; host or cells: HEK293
Nature of the data set: Fluorescent substrate uptake inhibition, SERT. It is filed as cell-based. To be noted: for inhibition at 10 µM: HEK293 cells expressing SERT. The protocol:
(§3) Uptake Inhibition. The ability of test compounds to block monoamine uptake by SERT, NET, DAT, and VMAT2 was determined using the Neurotransmitter Transporter Uptake Assay Kit manufactured by Molecular Devices (Cat #R8173). Briefly, stably transfected cells expressing the MAT of interest (HEK293 cells for SERT and NET; CHO cells for DAT) were grown and plated into 384-well plates at a concentration of 20,000 cells per well. Plates were then incubated for 16-20 h at 37° C. and 5% CO2. The medium was then aspirated and replaced with 25 μL of assay buffer (20 mM HEPES in HBSS, containing 0.1% BSA) containing the test compounds at the appropriate concentrations. Plates were then centrifuged at 300 rpm for 15 s and then incubated at 37° C. for 30 minutes. At this time, 25 μL of the proprietary fluorescent dye solution was added, the plates were incubated at 37° C. for 60 minutes, and then fluorescence was quantified on a plate reader (excitation wavelength=440 nm, emission wavelength=520 nm). The proprietary dye solution contains a mixture of 1) a fluorescent dye that mimics the endogenous substrates of MATs and is thereby actively transported to the intracellular compartment in the absence of an inhibitor and 2) a masking dye that inhibits the fluorescence of dye 1 in the extracellular compartment. Therefore, the overall fluorescence of the system increases as the fluorescent dye is transported into the cells.

The target of data set [6] is T2, norepinephrine transporter (NET) (Homo sapiens, UniProt P23975).
T2 construct: expressed in transfected cells; host or cells: HEK293
T2 sequence (P23975 whole entry, species assumed): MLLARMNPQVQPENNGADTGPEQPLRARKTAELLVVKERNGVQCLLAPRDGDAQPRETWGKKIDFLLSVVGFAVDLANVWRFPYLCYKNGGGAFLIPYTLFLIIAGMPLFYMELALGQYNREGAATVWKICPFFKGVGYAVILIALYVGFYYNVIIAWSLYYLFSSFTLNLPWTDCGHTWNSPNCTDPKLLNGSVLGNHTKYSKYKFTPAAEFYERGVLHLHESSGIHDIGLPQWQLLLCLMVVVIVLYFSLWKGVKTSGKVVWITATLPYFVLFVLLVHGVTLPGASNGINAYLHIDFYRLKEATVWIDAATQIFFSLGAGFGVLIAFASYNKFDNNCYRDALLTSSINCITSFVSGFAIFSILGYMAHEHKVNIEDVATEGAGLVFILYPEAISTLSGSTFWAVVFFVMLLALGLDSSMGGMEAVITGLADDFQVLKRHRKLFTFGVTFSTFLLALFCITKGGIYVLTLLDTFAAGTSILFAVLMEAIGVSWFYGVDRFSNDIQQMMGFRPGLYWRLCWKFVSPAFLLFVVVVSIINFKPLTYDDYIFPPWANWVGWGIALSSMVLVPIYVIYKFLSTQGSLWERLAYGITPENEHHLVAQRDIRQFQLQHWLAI
Description: Fluorescent substrate uptake inhibition, NET. It is filed as cell-based. Conditions: for inhibition at 10 µM: HEK293 cells expressing NET. As for the experimental part:
as §3

In data set [7] the target is T3, dopamine transporter (DAT) (Homo sapiens, UniProt Q01959).
T3 construct: expressed in transfected cells; host or cells: CHO (uptake)
T3 sequence (Q01959 whole entry, species assumed): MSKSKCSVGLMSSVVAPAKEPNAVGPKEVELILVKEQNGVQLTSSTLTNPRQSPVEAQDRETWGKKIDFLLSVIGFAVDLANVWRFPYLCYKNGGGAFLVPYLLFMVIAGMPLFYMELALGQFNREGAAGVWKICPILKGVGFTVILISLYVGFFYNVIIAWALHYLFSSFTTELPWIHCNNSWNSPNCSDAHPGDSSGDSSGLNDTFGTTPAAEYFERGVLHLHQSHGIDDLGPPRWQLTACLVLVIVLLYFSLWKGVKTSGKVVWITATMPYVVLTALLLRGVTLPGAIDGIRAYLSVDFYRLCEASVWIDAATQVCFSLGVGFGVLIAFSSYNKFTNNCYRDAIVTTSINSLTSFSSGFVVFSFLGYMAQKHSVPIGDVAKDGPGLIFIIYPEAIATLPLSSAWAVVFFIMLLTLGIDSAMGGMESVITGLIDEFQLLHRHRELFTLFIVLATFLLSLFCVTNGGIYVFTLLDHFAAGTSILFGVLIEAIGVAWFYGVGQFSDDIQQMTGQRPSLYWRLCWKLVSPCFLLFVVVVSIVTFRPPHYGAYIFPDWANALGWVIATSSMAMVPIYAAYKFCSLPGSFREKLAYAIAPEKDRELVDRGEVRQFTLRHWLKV
Nature of the data set: Fluorescent substrate uptake inhibition, DAT. It is filed as cell-based. Conditions: for inhibition at 10 µM: CHO cells expressing DAT. The protocol: as §3

The target in data set [8] is T4, vesicular monoamine transporter 2 (VMAT2) (Homo sapiens, UniProt Q05940).
T4 construct: expressed in transfected cells
T4 sequence (Q05940 whole entry, species assumed): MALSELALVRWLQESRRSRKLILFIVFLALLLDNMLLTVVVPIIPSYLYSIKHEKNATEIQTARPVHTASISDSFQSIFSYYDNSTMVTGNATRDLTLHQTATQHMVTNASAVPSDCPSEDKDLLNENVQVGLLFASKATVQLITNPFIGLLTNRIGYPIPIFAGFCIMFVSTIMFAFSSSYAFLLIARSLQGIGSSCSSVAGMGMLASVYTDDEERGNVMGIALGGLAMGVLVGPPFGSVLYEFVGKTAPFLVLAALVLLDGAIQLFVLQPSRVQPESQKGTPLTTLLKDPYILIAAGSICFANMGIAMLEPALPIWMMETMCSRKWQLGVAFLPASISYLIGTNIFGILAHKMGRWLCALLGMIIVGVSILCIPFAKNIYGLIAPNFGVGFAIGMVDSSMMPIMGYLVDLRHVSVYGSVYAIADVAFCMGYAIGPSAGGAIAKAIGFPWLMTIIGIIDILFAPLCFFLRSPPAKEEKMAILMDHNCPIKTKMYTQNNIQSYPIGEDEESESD
Description: Fluorescent substrate uptake inhibition, VMAT2. The class given is cell-based. To be noted: for inhibition at 10 µM: transfected cells. The protocol: as §3

T1 sequence (P31645 whole entry, species assumed): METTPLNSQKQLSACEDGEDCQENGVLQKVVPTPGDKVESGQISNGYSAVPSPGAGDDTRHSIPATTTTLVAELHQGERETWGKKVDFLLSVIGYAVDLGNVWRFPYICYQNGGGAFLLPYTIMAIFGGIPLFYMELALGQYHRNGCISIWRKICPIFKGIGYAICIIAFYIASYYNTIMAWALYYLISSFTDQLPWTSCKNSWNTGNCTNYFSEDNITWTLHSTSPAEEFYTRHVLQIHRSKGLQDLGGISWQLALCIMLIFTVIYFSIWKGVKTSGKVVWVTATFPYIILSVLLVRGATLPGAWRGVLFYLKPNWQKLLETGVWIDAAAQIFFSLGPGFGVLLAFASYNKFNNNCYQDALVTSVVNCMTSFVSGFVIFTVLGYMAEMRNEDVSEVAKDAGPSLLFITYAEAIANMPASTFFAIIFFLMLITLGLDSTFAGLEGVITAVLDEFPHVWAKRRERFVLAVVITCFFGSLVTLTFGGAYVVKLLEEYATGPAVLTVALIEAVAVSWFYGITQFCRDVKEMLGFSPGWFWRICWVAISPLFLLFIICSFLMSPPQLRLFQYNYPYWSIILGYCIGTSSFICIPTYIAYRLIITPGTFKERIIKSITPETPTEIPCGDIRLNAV

In the case of `O=C1CCCC[C@]1(c1ccccc1)N1CCCC1` [Compound 27R, (R)-2-phenyl-2-(pyrrolidin-1-yl)cyclohexan-1-one], the results for the half-life at 1 μM in data set [1], in data set [2] and in data set [3] were over 145 min, 40.4 min and 55.9 min, respectively. For the same compound, the figures for the microsomal CLint at 1 μM in data set [1], in data set [2] and in data set [3] were under 9.6 µL/min/mg, 34.3 µL/min/mg and 24.8 µL/min/mg, respectively. Also, in data set [4], the Ki – broadly, the dissociation constant of the complex between target and ligand, obtained from inhibition or displacement – is 3.1 µM. Further, the IC50 (commonly the concentration that gives 50% inhibition) was found to be 2.1 µM in data set [5], 17.3 µM in data set [6], 21 µM in data set [7] and 18.1 µM in data set [8].

Turning to `CNC1(c2cccc(C)c2)CCCCC1=O` (racemic) [Compound 23rac, 2-(methylamino)-2-(m-tolyl)cyclohexan-1-one], the half-life (in general, how long it takes for the measured level to halve) at 1 μM in data set [1] was determined as 133 min; in data set [2], 52.7 min; in data set [3], 3.6 min. In addition, the results for the microsomal CLint at 1 μM in data set [1], in data set [2] and in data set [3] were 10.4 µL/min/mg, 26.3 µL/min/mg and 390 µL/min/mg, respectively. Also, the Ki in data set [4] worked out at 4.6 µM. Also, the inhibition (in general, the change of the read-out against control, counted positive when it falls) at 10 µM in data set [5] was -1%; in data set [6], 8%; in data set [7] it was 8.5%; in data set [8] it was 16%.

As for `CC1CN(C2(c3ccccc3)CCCCC2=O)C1` (racemic) [Compound 129rac, 2-(3-methylazetidin-1-yl)-2-phenyl-cyclohexan-1-one], the half-life at 1 μM worked out at 134 min in data set [1], 9.3 min in data set [2] and 24.1 min in data set [3]. The microsomal CLint – broadly, a measure of how fast metabolising enzymes remove a compound, apart from limits set by blood flow – at 1 μM in data set [1] came out at 10.4 µL/min/mg; in data set [2], 149 µL/min/mg; in data set [3], 57.5 µL/min/mg. Moreover, in data set [4], the Ki was 0.52 µM. Moreover, the inhibition at 10 µM amounted to 28% in data set [5], 10.6% in data set [6], 35.8% in data set [7] and 31.9% in data set [8].

In the case of `NC1(c2ccc(F)cc2)CCCCC1=O` (racemic) [Compound 117rac, 2-amino-2-(4-fluorophenyl)cyclohexan-1-one], the half-life at 1 μM in data set [1], in data set [2] and in data set [3] was over 145 min throughout. In addition, the microsomal CLint at 1 μM in data set [1], in data set [2] and in data set [3] was under 9.6 µL/min/mg throughout. Further, in data set [4], the Ki worked out at 8.4 µM. For the same compound, the inhibition at 10 µM in data set [5] is -0.91%; in data set [6], 5%; in data set [7], 6.8%; in data set [8], 17.1%.

For the compound `CC1CCN1C1(c2ccccc2)CCCCC1=O` (stereo not shown) [Compound 128mix, 2-(2-methylazetidin-1-yl)-2-phenylcyclohexan-1-one], the half-life at 1 μM stood at 87 min in data set [1], 20.3 min in data set [2] and 27.4 min in data set [3]. In addition, the microsomal CLint at 1 μM in data set [1] was found to be 15.9 µL/min/mg; in data set [2] it was 68.3 µL/min/mg; in data set [3], 50.6 µL/min/mg. For the same compound, in data set [4], the Ki was 1.9 µM. Besides, the inhibition at 10 µM in data set [5] is 81.9%; in data set [6], -2.9%; in data set [7], 19.2%; in data set [8] it was 23.4%.
